{"source": "patent US4464367A", "about": "“Cephalosporin derivatives, process for preparation thereof and drugs containing said derivatives usable as antibiotics” (Sanofi, priority 1980, dated 1984)", "key": {"[1]": {"tested_on": "Escherichia coli A 223", "assay": "in vitro bacteriostatic action, solid medium, dilutions method", "assay_type": "cell-based", "settings": "A223, not producing lactamases, read-out: minimum inhibitor concentration (MIC)", "experimental": "(§1) The in vitro bacteriostatic action was determined in a solid medium by the dilutions method. The study was directed to Gram^+ and Gram^- strains of which several are known for producing β lactamases.\n(§2) The results are expressed in the minimum inhibitor concentrations (MIC--μg/ml)."}, "[2]": {"tested_on": "Escherichia coli R 69/2 TEM", "assay": "in vitro bacteriostatic action, solid medium, dilutions method", "assay_type": "cell-based", "settings": "R69/2TEM, read-out: minimum inhibitor concentration (MIC)", "experimental": "as §1, §2"}, "[3]": {"tested_on": "Escherichia coli SOL RL 90", "assay": "in vitro bacteriostatic action, solid medium, dilutions method", "assay_type": "cell-based", "settings": "SOLRL90, producing lactamases, read-out: minimum inhibitor concentration (MIC)", "experimental": "as §1, §2"}, "[4]": {"tested_on": "Klebsiella pneumoniae IP E 55", "assay": "in vitro bacteriostatic action, solid medium, dilutions method", "assay_type": "cell-based", "settings": "IPE55, not producing lactamases, read-out: minimum inhibitor concentration (MIC)", "experimental": "as §1, §2"}, "[5]": {"tested_on": "Klebsiella pneumoniae RO 30", "assay": "in vitro bacteriostatic action, solid medium, dilutions method", "assay_type": "cell-based", "settings": "RO30, producing lactamases, read-out: minimum inhibitor concentration (MIC)", "experimental": "as §1, §2"}, "[6]": {"tested_on": "Staphylococcus aureus Smith", "assay": "in vitro bacteriostatic action, solid medium, dilutions method", "assay_type": "cell-based", "settings": "not producing lactamases, read-out: minimum inhibitor concentration (MIC)", "experimental": "as §1, §2"}, "[7]": {"tested_on": "Escherichia coli SOL RL 90", "assay": "therapeutic efficacy in septicaemia provoked in the mouse by Escherichia coli SOL RL 90", "assay_type": "in vivo", "settings": "SOLRL90, sc, 96 h, read-out: DE 50 (median effective dose, ED 50)", "experimental": "The therapeutic efficacy of the products is determined in the septicaemic model of the mouse.\nSepticaemia is provoked by intraperitoneal inoculation of 0.5 ml of an appropriate dilution of suspension of the strain E.coli Sol. RL 90 producing cephalosporinase.\nThe products are administered in solution in a phosphate buffer pH 7.0 in a volume of 0.2 ml by the sub-cutaneous route and at a rate of 5 doses (mg of product per kg of live weight of mouse) to batches of 10 mice 1 hour and 5 hours after inoculation of the germ.\nAfter 4 days of observation during which the mortality is noted, the median effective doses (ED 50) are calculated by the Muench and Reed method."}, "[8]": {"assay": "solubility in a buffer solution", "assay_type": "physicochemical", "settings": "pH 7, aqueous buffer; buffer solution having a pH of 7", "excerpt": "The pharmaceutical compositions are made from compounds (I) in their acid form or, when their solubility is insufficient, in the form of a salt."}}, "note": "Structures can show the parent of a compound that is named as a salt. Where two headings read alike, the source gives them in different places."}
{"smiles": "CO/N=C(\\C(=O)NC1C(=O)N2C(C(=O)O)=C(CSC(=O)c3ccco3)CSC12)c1csc(N)n1", "note": "(stereo not drawn) [31 916, Syn isomer [(amino-2 thiazolyl-4)-2 methoxyimino-2 acetamido]-7 (furyl-2 carbonylthiomethyl)-3 cepheme-3 4-carboxylic acid]", "values": [{"measurement": "MIC", "setting": "[1]", "result": 0.5, "unit": "µg/mL"}, {"measurement": "MIC", "setting": "[2]", "result": 0.25, "unit": "µg/mL"}, {"measurement": "MIC", "setting": "[3]", "result": 2, "unit": "µg/mL"}, {"measurement": "MIC", "setting": "[4]", "result": 1, "unit": "µg/mL"}, {"measurement": "MIC", "setting": "[5]", "result": 8, "unit": "µg/mL"}, {"measurement": "MIC", "setting": "[6]", "result": 0.25, "unit": "µg/mL"}, {"measurement": "ED50", "setting": "[7]; mouse septicaemia, sub-cutaneous, 1 hour and 5 hours after inoculation, 4 days of observation, Muench and Reed method", "result": 5.4, "unit": "mg/kg"}]}
{"smiles": "CO/N=C(\\C(=O)NC1C(=O)N2C(C(=O)O)=C(CSC(=O)c3cccs3)CSC12)c1csc(N)n1", "note": "(stereo not drawn) [31 917, syn isomer [(amino-2 thiazolyl-4)-2 methoxyimino-2 acetamido]-7 (thienyl-2 carbonylthiomethyl)-3 cepheme-3 4-carboxylic acid]", "values": [{"measurement": "MIC", "setting": "[1]", "result": 0.5, "unit": "µg/mL"}, {"measurement": "MIC", "setting": "[2]", "result": 0.5, "unit": "µg/mL"}, {"measurement": "MIC", "setting": "[3]", "result": 2, "unit": "µg/mL"}, {"measurement": "MIC", "setting": "[4]", "result": 1, "unit": "µg/mL"}, {"measurement": "MIC", "setting": "[5]", "result": 8, "unit": "µg/mL"}, {"measurement": "MIC", "setting": "[6]", "result": 0.25, "unit": "µg/mL"}, {"measurement": "ED50", "setting": "[7]", "result": 3.6, "unit": "mg/kg"}]}
{"smiles": "CO/N=C(\\C(=O)NC1C(=O)N2C(C(=O)O)=C(CSC(=O)c3ccco3)CSC12)c1csc(N)n1", "note": "(stereo not drawn) [sodium salt of compound CM 31916]", "values": [{"measurement": "solubility", "setting": "[8]", "result": "> 200", "unit": "mg/mL"}]}
